Results taken from ChEMBL document CHEMBL3988442, “University of Dundee, Small-Polar-MMV Screening Library” (2021).
Several values for one entry are separate records, joined by “and”; a condition that tells them apart may be missing. Identical values can stand only once.

Experiments:
[1] = test system: Mycobacterium tuberculosis; assay: Cornell M. t heat shock assay; type: functional, organism-based; details: for IC50: Mycobacterium tuberculosis
[2] = microbe, parasite or virus in culture; details: Mycobacterium tuberculosis, 72 h, read-out: pIC50 (converted)
[3] = test system: Wolbachia pipientis; assay: Anti-Wolbachia Cell-Based Screen; type: functional; details: for IC50: Wolbachia pipientis
[4] = microbe, parasite or virus in culture; details: Mycobacterium tuberculosis, 96 h, read-out: pIC50 (converted)
[5] = target: Lysine--tRNA ligase (Plasmodium falciparum (isolate 3D7), UniProt Q8IDJ8); assay: Pf-KRS-1 (Lysyl-RNA Synthetase-1, KRS-1, cytosolic KRS) from Plasmodium falciparum. Inhibitor assay, 384 well plate, luminescence read.; type: functional
[6] = target: T1, Histidine--tRNA ligase (Leishmania infantum, UniProt A4I591); assay: Leishmania infantum Histidine tRNA synthetase (LdHisRS); type: functional
T1 sequence (A4I591 whole entry): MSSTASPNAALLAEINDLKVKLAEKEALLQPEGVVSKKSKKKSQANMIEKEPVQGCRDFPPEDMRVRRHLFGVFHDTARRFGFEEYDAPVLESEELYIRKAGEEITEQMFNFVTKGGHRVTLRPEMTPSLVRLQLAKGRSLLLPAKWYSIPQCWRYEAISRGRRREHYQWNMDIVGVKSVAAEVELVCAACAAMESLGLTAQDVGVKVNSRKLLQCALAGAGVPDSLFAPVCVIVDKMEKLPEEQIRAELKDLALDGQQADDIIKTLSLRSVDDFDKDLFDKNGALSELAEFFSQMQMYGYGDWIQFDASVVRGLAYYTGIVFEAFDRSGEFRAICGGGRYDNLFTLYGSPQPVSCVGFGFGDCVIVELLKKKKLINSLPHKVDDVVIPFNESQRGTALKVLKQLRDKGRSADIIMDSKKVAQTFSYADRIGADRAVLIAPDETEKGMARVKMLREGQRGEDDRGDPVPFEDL

[7] = target: Polyketide synthase Pks13 (Mycobacterium tuberculosis (strain ATCC 25618 / H37Rv), UniProt I6X8D2); assay: Mycobacterium tuberculosis Polyketide synthase 13 Thioesterase (PKS13); type: functional
[8] = target: ClpP1P2 (Mycobacterium tuberculosis (strain ATCC 25618 / H37Rv), UniProt P9WPC3+P9WPC5); assay: in vitro assay to detect presence of AMC directly proportional to the activity of ClpP1P2. GHDDI collaboration.; type: functional
[9] = test system: Schistosoma mansoni; assay: High throughput screening of compounds against Schistosoma mansoni motility; type: functional; parameters: dose or concentration left out as unconfirmed

Polyketide synthase Pks13, sequence (I6X8D2 whole entry): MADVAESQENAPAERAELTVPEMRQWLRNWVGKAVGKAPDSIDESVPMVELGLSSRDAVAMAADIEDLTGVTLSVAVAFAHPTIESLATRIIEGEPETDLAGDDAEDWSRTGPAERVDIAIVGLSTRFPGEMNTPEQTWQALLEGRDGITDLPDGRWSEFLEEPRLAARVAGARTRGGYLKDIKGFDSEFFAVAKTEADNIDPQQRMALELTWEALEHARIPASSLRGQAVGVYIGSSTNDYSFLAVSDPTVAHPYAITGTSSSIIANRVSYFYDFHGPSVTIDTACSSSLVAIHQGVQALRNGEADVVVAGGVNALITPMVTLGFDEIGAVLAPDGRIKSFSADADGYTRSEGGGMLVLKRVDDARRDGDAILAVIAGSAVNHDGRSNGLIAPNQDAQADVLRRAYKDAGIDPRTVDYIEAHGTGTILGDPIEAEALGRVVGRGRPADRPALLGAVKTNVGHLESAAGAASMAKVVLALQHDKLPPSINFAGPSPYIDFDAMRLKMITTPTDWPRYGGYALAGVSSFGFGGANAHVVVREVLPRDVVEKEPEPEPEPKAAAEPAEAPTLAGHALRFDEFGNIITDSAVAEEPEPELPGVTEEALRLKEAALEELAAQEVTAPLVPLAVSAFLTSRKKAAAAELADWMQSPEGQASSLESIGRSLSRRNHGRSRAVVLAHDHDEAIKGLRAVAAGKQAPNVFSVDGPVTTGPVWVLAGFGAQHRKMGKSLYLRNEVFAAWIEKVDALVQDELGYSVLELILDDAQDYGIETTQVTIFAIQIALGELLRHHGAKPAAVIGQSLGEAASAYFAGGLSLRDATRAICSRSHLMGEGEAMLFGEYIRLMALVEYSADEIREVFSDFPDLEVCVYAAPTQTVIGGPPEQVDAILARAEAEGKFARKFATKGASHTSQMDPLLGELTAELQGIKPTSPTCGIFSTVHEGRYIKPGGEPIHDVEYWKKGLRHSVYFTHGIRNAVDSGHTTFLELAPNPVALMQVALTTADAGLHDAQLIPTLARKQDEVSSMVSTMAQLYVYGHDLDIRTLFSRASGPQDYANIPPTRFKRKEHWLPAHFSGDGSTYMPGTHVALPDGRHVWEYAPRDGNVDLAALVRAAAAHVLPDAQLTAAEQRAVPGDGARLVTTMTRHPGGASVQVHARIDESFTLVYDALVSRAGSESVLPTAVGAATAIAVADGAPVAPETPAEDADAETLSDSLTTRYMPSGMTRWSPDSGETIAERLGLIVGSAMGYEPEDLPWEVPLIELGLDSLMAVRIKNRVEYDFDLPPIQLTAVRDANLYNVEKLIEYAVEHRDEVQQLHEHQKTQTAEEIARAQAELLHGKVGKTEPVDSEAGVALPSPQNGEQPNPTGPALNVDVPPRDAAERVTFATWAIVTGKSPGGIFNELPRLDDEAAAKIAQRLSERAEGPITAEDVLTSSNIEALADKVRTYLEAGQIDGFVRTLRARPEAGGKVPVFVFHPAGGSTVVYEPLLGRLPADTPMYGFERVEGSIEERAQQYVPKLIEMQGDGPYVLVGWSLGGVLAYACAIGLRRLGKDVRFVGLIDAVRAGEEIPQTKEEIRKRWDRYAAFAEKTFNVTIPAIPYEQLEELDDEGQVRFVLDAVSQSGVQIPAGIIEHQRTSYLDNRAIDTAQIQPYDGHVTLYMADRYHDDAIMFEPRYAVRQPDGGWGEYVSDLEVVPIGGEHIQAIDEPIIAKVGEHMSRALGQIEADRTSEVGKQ
ClpP1P2, sequence (P9WPC5 whole entry): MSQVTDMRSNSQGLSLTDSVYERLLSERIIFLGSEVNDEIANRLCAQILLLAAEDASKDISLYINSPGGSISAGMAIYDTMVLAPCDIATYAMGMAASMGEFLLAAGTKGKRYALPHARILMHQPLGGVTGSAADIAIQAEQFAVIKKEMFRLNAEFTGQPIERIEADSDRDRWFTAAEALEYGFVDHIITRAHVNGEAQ
ClpP1P2, sequence (P9WPC3 whole entry): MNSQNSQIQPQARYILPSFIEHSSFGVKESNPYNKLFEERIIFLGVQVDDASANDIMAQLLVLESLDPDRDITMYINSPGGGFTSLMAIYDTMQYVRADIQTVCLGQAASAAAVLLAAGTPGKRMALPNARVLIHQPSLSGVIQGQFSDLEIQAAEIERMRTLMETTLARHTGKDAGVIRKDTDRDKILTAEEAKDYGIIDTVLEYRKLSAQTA
Lysine--tRNA ligase, sequence (Q8IDJ8 whole entry): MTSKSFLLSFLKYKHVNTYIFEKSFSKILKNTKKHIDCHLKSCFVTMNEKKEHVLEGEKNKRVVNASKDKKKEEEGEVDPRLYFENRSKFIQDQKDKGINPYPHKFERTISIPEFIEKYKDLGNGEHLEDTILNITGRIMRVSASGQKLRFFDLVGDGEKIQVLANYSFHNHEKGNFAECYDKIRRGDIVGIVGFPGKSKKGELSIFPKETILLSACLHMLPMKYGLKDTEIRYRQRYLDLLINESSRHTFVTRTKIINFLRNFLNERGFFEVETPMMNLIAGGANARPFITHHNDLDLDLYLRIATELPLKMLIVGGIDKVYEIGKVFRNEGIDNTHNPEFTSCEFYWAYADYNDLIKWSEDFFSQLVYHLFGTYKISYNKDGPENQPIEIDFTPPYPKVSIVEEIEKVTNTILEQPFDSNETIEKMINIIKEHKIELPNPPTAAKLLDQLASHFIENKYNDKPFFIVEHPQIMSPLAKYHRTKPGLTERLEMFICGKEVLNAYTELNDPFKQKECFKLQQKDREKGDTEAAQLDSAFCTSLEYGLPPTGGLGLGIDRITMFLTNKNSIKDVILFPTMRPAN

CCCN1CCC(c2cc(CCOc3ccc(C(F)(F)F)cc3)[nH]n2)C1 (stereo not given)
pIC50 [1]: < 4 and 4.339

CC1CCCN(c2ncc(-c3ccccc3F)c(-c3nccn3C)n2)C1 (stereo not given)
pIC50 [1]: 4.289 and 4.7

CN(C)S(=O)(=O)N1CCCCCC1c1cc(-c2ccc(F)cc2)no1 (stereo not given)
pIC50 [1]: 4.075
IC50 [1]: > 100 µM

Oc1cc(C2CCCN(Cc3cccs3)C2)nc(-c2ccccn2)n1 (stereo not given)
pIC50 [1]: 4.835 and 5.179

c1cc(CN2CCCCC2c2ccc(Nc3cnccn3)nc2)ccn1 (stereo not given)
pIC50 [1]: < 4 and < 4.31

Fc1ccc(CN2CCCC(c3cc4ncccc4[nH]3)C2)cc1 (stereo not given)
IC50 [2]: 33.7 µM
pIC50 [3]: 5.047
IC50 [3]: 6.78 µM
IC50 [4]: 24.3 µM

O=C1CO[C@H]2CN(Cc3cccc4[nH]ccc34)C[C@@H]2N1C1CCOCC1
pIC50 [1]: 4.298
IC50 [1]: > 100 µM

Cc1cc(-c2cnc(N3CCCCCC3)nc2-c2cccnc2C)on1
pIC50 [1]: 4.097
IC50 [1]: 68.5 µM

Cc1cc(-c2cnc(NC3CCCC3)nc2-c2ccc(C)o2)on1
pIC50 [1]: 4.052
IC50 [1]: > 100 µM

COc1ccc(CN2CCc3c(nc(-c4ccccn4)[nH]c3=O)C2)cc1
pIC50 [1]: 4.829 and 5.147

CCC(C)n1cnc(S(=O)(=O)N(Cc2cccnc2)C(C)C)c1 (stereo not given)
IC50 [3]: > 10 µM

COc1ccc(CC(=O)N(C)c2cccnc2N(C)C)c(Cl)c1
IC50 [5]: > 50.1 µM
IC50 [6]: 19.4 µM and 16.5 µM
pIC50 [3]: 5.287
IC50 [3]: 4.83 µM

OC1(CN2CCC(Oc3cccc(C(F)(F)F)c3)CC2)CNCCOC1 (stereo not given)
IC50 [3]: > 10 µM

O=C1[C@H]2CC[C@H](CN(c3ncnc4ccsc34)C2)N1CC1CC1
IC50 [2]: > 50.1 µM
IC50 [7]: > 100 µM
pIC50 [3]: 5.348
IC50 [3]: 5.55 µM
IC50 [4]: > 50.1 µM

COc1ncccc1C(=O)N1CCc2c(ncnc2N2CCOCC2)C1
IC50 [3]: > 10 µM

CCn1cc(-c2cc(-c3cc(CN(C)C)cs3)nc(N)c2C#N)c(C)n1
IC50 [8]: > 100 µM
IC50 [7]: 24.7 µM and 11 µM
IC50 [3]: > 10 µM

Cc1cc(CN2CCCC2)cc(Oc2nc(C)cnc2C)c1
IC50 [3]: > 10 µM

Cc1c(CNCC(C)Oc2cccnc2)c2ccccc2n1CC(N)=O (stereo not given)
IC50 [3]: > 10 µM

CC1CCCN1Cc1cccc(C(=O)Nc2ccc3c(c2)CCC3=O)c1 (stereo not given)
IC50 [3]: > 10 µM

O=C1O[C@@H]2CN(C3CCOCC3)C[C@@H]2N1CCCc1ccc(F)cc1
IC50 [3]: > 10 µM

CCc1cc(C(=O)N2CCC3(CCCN(CC4CC4)C3=O)C2)cs1 (stereo not given)
IC50 [3]: > 10 µM

CCc1nc(N)nc(N2CCCC3(CCN(C)CC3)CC2)c1C
IC50 [3]: > 10 µM

CNc1cc(C)nc(N2Cc3cnn(Cc4ccc(F)cc4)c3C2)n1
IC50 [2]: 33.6 µM
pIC50 [3]: 6.156
IC50 [3]: 0.556 µM
IC50 [4]: 24.2 µM

CC(C)N1CC(NC(=O)c2ccc(Cl)s2)CC1=O (stereo not given)
IC50 [3]: > 10 µM

O=C1CC(c2ccc3ccccc3n2)c2c(n[nH]c2C2CCC2)N1 (stereo not given)
IC50 [3]: > 10 µM

Cc1csc(CN(C)c2cc(C)nc3c(C)c(C)nn23)n1
IC50 [2]: 37.9 µM
pIC50 [3]: 5.234
IC50 [3]: 6.27 µM
IC50 [4]: 25.5 µM

CNc1ncc(CN(C)c2ncnc3onc(C)c23)cn1
IC50 [3]: > 10 µM

CN(CCc1ccccc1)Cc1cc(C(=O)N2CCN(C)C(=O)C2)no1
IC50 [3]: > 10 µM

CN(Cc1ccc(F)cc1)CC1(O)CCCN(CC(C)(C)C)C1=O (stereo not given)
Percent Effect [9]: 7.085%
IC50 [3]: > 10 µM

CSCC[C@H](N)C(=O)NCc1cc2n(n1)CCCN(C(=O)C1CCC1)C2
Percent Effect [9]: -28.36%
IC50 [3]: > 10 µM

CCCS(=O)(=O)N1CCN(c2cc(-n3nc(C)cc3C)nc(C)n2)CC1
IC50 [3]: > 10 µM

CCOCCCn1c(NC(=O)c2cnc(C)s2)nc2ccccc21
IC50 [3]: > 10 µM

Cc1cc(C)n(CC2CCCN2CC(=O)Nc2cc(C(C)C)no2)n1 (stereo not given)
pIC50 [1]: 4.348 and 4.706

Cc1cc(NC(=O)NCC(O)c2ccc(F)c(F)c2)n(C)n1 (stereo not given)
IC50 [3]: > 10 µM

c1cnnc(N2CCCC2CNCc2csc(-c3ccco3)n2)c1 (stereo not given)
IC50 [3]: > 10 µM

c1ccc(-c2nc(CN3CCCC3Cn3cncn3)no2)cc1 (stereo not given)
IC50 [3]: > 10 µM

Cc1ccccc1CNC(=O)Cn1nc(-c2ccc(F)cc2)oc1=O
IC50 [3]: > 10 µM

Cc1nn(C)c(C)c1C(=O)NCc1ccnc(OCC(F)(F)F)c1
IC50 [3]: > 10 µM

COc1cc(CNC(=O)c2c(C)noc2C)ccn1
IC50 [3]: > 10 µM

CC(=O)N1CCN(C(=O)CCn2c(C)nc3ccccc3c2=O)CC1
IC50 [3]: > 10 µM

O=C(NCCCn1cncn1)N1CCCCCC1
IC50 [3]: > 10 µM

CC(C(=O)N1CCCN(Cc2ccc(C#N)cc2)CC1)n1cncn1 (stereo not given)
IC50 [3]: > 10 µM

CC(C(=O)N1CCCN(Cc2cnn(C)c2)CC1)n1ccnc1 (stereo not given)
IC50 [3]: > 10 µM

Cc1cc(NC(=O)CN2CCn3c(nnc3C3CC3)C2)on1
IC50 [3]: > 10 µM

O=C(CCc1ccccc1Cl)NS(=O)(=O)c1ccc2c(c1)OCCO2
IC50 [3]: > 10 µM

CCNc1cc2c(nn1)CCN(C(=O)c1ccnc(C)n1)C2
IC50 [6]: 58.6 µM and 51.7 µM
IC50 [3]: > 10 µM

Cc1cc(C)n(CC2CCCN2C(=O)CCc2ccco2)n1 (stereo not given)
IC50 [3]: > 10 µM

CN1CCC/C1=N\S(=O)(=O)c1ccc(NC(=O)c2ccc(Cl)s2)cc1
IC50 [3]: > 10 µM

O=C(CCc1ccc(Cl)s1)N1CCC(N2CCNC2=O)CC1
IC50 [3]: > 10 µM

Cc1cnn(CC2CCCCN2C(=O)c2ccc(CN(C)C)cc2)c1 (stereo not given)
IC50 [3]: > 10 µM

Cc1ccc(-c2nc(CN3CCn4c(C)nnc4C3)cs2)o1
IC50 [3]: > 10 µM

CC(C)C(C(=O)N1CCCN(Cc2nccn2C)CC1)N1CCCC1 (stereo not given)
IC50 [3]: > 10 µM

CC(=O)N(Cc1noc(C2CC2)n1)C1CCN(Cc2cccnc2)C1 (stereo not given)
IC50 [3]: > 10 µM

CCC(CC)C(O)CNC(=O)Nc1cc(C)nn1C (stereo not given)
IC50 [3]: > 10 µM

CCOc1ncccc1C(=O)N1CCCC1c1c(C)nn(C)c1OC (stereo not given)
IC50 [3]: > 10 µM

N#Cc1ccc(N2CCCC3(CCN(c4cccnc4)CC3)C2)cc1.O=C(O)C(F)(F)F
IC50 [6]: 24.6 µM and 24.2 µM
pIC50 [3]: 6.279 and 5.873

CO[C@@H]1CCN(c2nnc(C)s2)C[C@@H]1Cc1cccc(C)c1.O=C(O)C(F)(F)F
IC50 [2]: 41.6 µM
pIC50 [3]: 5.813
IC50 [3]: 1.57 µM
IC50 [4]: 16.3 µM

CO[C@@H]1CCN(c2nnc(C)s2)C[C@@H]1Cc1ccccc1.O=C(O)C(F)(F)F
IC50 [2]: 11.3 µM
pIC50 [3]: 6.169
IC50 [3]: 0.958 µM
IC50 [4]: 7.95 µM

CO[C@H]1CCN(c2nnc(C)s2)C[C@@H]1Cc1ccccc1.O=C(O)C(F)(F)F
IC50 [2]: 40.3 µM
pIC50 [3]: 5.449
IC50 [3]: 3.77 µM
IC50 [4]: 15.7 µM

COc1ccc(C[C@H]2CN(c3nnc(C)s3)CC[C@H]2OC)cc1.O=C(O)C(F)(F)F
IC50 [2]: 16.3 µM
pIC50 [3]: 6.226
IC50 [3]: 0.462 µM
IC50 [4]: 16.4 µM

CO[C@H]1CCN(c2nnc(C)s2)C[C@@H]1Cc1cccc(C)c1.O=C(O)C(F)(F)F
IC50 [2]: 41.7 µM
pIC50 [3]: 5.267
IC50 [3]: 3.74 µM
IC50 [4]: 16.7 µM

Cc1ccc(CN2CCn3c(CNC(=O)c4cccn4C)cnc3C2)s1
IC50 [6]: 64.8 µM and 62.5 µM
IC50 [3]: > 10 µM

O=C(O)C(F)(F)F.c1cc(-c2ccc3c(c2)CCC32CCN(c3nncs3)CC2)ccn1
IC50 [6]: 19.6 µM and 24.9 µM
pIC50 [3]: 5.133
IC50 [3]: 5.68 µM

O=C(O)C(F)(F)F.O=C(O)C(F)(F)F.c1cncc(-c2ccc3c(c2)CCC32CCN(Cc3ccco3)CC2)c1
IC50 [2]: 20.5 µM
pIC50 [3]: 6.473
IC50 [3]: 0.404 µM
IC50 [4]: 28.7 µM

Cc1ccc(CN(CCCn2ccnc2)Cc2c(F)cccc2F)s1.O=C(O)CC(O)(CC(=O)O)C(=O)O
pIC50 [1]: 4.654
IC50 [1]: 23.6 µM

Cc1ccc(O)c(CN(CCCn2ccnc2)Cc2ccc(C)s2)c1.O=C(O)CC(O)(CC(=O)O)C(=O)O
pIC50 [1]: 4.427
IC50 [1]: 42.9 µM
